# Reference: patent publication US20080176934A1, “Use Of Diosmetin Compounds In The Treatment And Prevention Of Thrombotic Pathologies” (Les Laboratoires Servier, priority 2005, published 2008)
# Where two headings read alike, the source gives them in different places.
# Experiments:
# PAI-1 promoter = PAI-1 promoter activity (PGL3/PAI-1 luciferase reporter) in transfected HepG2 cells; assay type: cell-based, human; conditions: for Activity in cpm (PAI-1 promoter activity): 10 μM, 24 h, n=6; for inhibition at 10 µM: Homo sapiens, HepG2, 24 h, read-out: % inhibition/control (PAI-1 promoter activity)
# Description: The study is carried out on a line of human hepatocytes HepG2 (ATCC, no. HB-8065). The cells are cultured in a medium of MEM (minimal essential medium) with glutamax-1 (Gibco™) containing 10% FCS (foetal calf serum), 1% non-essential amino acids and 1% sodium pyruvate and supplemented with penicillin and streptomycin.
# A fragment of 2.5 kb, corresponding to the PAI-1 promoter, extending from the nucleotides at positions −2442 to +136, was amplified by PCR and sub-cloned (Lopez et al., 2000, Atherosclerosis, 152, 359-366). In a final reaction volume of 50 μl, 2.5 units of Platinum® TaqDNA Polymerase High Fidelity (Invitrogen) are placed in the presence of 300 ng of human genomic DNA (Clontech), 300 μM of dNTP (deoxynucleotide triphosphate) (Clontech), 300 nM of primers in a medium containing the buffer specific to the enzyme, supplemented by 1.5 mM of MgCl2 and different concentrations of PCRx Enhancer System (Invitrogen), which facilitates amplification of the especially difficult sequences (0 to 4×). The set of primers used (Chen et al. Differential mechanisms of PAI-1 gene activation by transforming growth factor beta and tumor necrosis factor alpha in endothelial cells, 2001, Thrmb Haemost, 86, 1563-72) is as follows:
# Ligation of the pGL3-Basic plasmid vector and the insert corresponding to the PAI-1 promoter was carried out by means of T4 DNA Ligase (LigaFast™ Rapid DNA Ligation System from Promega). Conventionally, during ligation, there is used an excess of insert which is equivalent to three times the amount of vector. Furthermore, because this insert is half as long as the vector (2.5 kb as opposed to 4.8 kb), maintaining stoichiometric equilibrium requires twice the mass of […]. 37.5 ng of insert and 25 ng of pGL3-Basic vector were therefore reacted in the presence of 3 units of T4 ligase, at ambient temperature.
# The PGL3/PAI-1 plasmid is transfected into HepG2 cells. Transfection is carried out in plates having cells at 50% confluence, depositing Lipofectin® (1 mg/ml) and 1.5 μg of PGL3/PAI-1 plasmid in each of the wells. The Lipofectin® is activated for 30 min in an OPTI-MEM medium (GIBCO™) and then brought into contact for 15 min with the plasmids previously diluted with the medium. The cells are incubated for 6 hours at 37° C. in an atmosphere containing 5% CO2 and 95% […]. The transfection medium is withdrawn and replaced overnight by an enriched culture medium in order to stabilise the cells. Expression of the reporter genes is induced over 24 h in an MEM medium without serum. The cells are scratched and lysed in a lysis buffer (Dual-Luciferase® kit, Promega) and then held at −20° C.
# The induction phase is 24 h for the HepG2 cells in the presence of TGFβ1 (1 ng/ml). During that induction phase, a PAI-1 expression inhibitor may be added 4 h before TGFβ1 and kept in contact with the cells until the end of the 24 h of the induction phase.
# The PAI-1 promoter activity is determined by quantification of the luciferase activity produced (Dual-Luciferase® kit, Promega). To each well there is added a solution of luciferin, the substrate of firefly luciferase. […] The plate is incubated for 10 min in the dark because the luciferase activity is sensitive to light, and then a luminometer reading is started in order to quantify the photons emitted (Wallac, Perkin Elmer), the result obtained being the average cpm (counts per minute) over a period of 5 s.
# 6,8-Diallyl-5,7-dihydroxy-2-(2-allyl-3-hydroxy-4-methoxyphenyl)-4H-1-benzopyran-4-one, arbitrarily referred to as compound A, and T686 of formula 3(E)-benzylidene-4(E)-(3,4,5-trimethoxybenzylidene)pyrrolidine-2,5-dione (PAI-1 expression inhibitor of reference, from Tanabe) were tested at a concentration of 10 μM on HepG2 cells in the basal state and after induction with TGFβ1. The PAI-1 promoter activity is measured in the control condition and in the presence of inhibitors, in the basal and induced states.
# [1] = system: arterial thrombosis induced by FeCl3 on the abdominal aorta; experiment: Model of arterial thrombosis induced by FeCl3 on the abdominal aorta in the rat; assay type: in vivo; conditions: male CD rats, 30 mg/kg/day per os for 5 days, FeCl3 50% on aorta
# Description: The studies were carried out on male CD rats weighing between 250 and 400 g (Charles River Laboratories). The experimental protocol carried out on groups of from 6 to 8 rats comprises a group for each compound under test to be compared with a control group in which the rats are treated with a solvent. These rats are used to study the effects of an antithrombotic in a model of arterial thrombosis induced by FeCl3 on the abdominal aorta (Tanaka et al. Z-335, a new thromboxane A2 receptor antagonist, prevents arterial thrombosis induced by ferric chloride in rats, 2000, Eur. J. Pharmacol., 401, 413-418).
# The rats are treated with the compound under test, for example 6,8-diallyl-5,7-dihydroxy-2-(2-allyl-3-hydroxy-4-methoxyphenyl)-4H-1-benzopyran-4-one (30 mg/kg/day) by administration per os by gavage for 5 days before arterial thrombosis is induced in those rats. The rats are anaesthetised using pentobarbital 50 mg/kg by intraperitoneal administration and their abdominal aortas are exposed following laparotomy. […]
# The activity of 6,8-diallyl-5,7-dihydroxy-2-(2-allyl-3-hydroxy-4-methoxyphenyl)-4H-1-benzopyran-4-one is evaluated as a function of the weight of the clot removed from the aorta, that activity being greater for a lesser weight of clot.
# [2] = HepG2, induced by TGFβ1 (1 ng/ml)
Structure (SMILES),"Activity in cpm (PAI-1 promoter activity) (PAI-1 promoter; HepG2, basal condition) [cpm]",Activity in cpm (PAI-1 promoter activity) (PAI-1 promoter; [2]) [cpm],"inhibition at 10 µM (PAI-1 promoter; HepG2, basal condition) [%]",inhibition at 10 µM (PAI-1 promoter; [2]) [%],reduction in the weight of the clot with respect to the control [1] [%],"Weight of clot ([1]; n=6, control 10.6 ± 0.7 mg) [mg]"
"C=CCc1c(-c2cc(=O)c3c(O)c(CC=C)c(O)c(CC=C)c3o2)ccc(OC)c1O [Compound A, 6,8-diallyl-5,7-dihydroxy-2-(2-allyl-3-hydroxy-4-methoxyphenyl)-4H-1-benzopyran-4-one]",445 ± 121,765 ± 138,69,78,~30,7.6 ± 0.4
"COc1cc(/C=C2/C(=O)NC(=O)/C2=C/c2ccccc2)cc(OC)c1OC [Compound T686, 3(E)-benzylidene-4(E)-(3,4,5-trimethoxybenzylidene)pyrrolidine-2,5-dione, reference compound]",473 ± 143,1641 ± 173,67,52,,
